Assays:
[1] = tested on: TNFα; test: Inhibition of LPS induced TNFα in THP-1 human monocytes (EIA); assay type: cell-based
Protocol: Inhibition of Tumor necrosis factor-α (TNF-α) in vitro by extracts, fractions and compounds of Annona squamosa: The anti-inflammatory activities of extracts, fractions and compounds of Annona squamosa were assessed in a cell based in vitro assay. Briefly, THP-1 human monocytes cells were washed and re-suspended in phenol red free Dulbecco's Modified Eagle's Medium (DMEM) supplemented with 1% fetal Bovine serum (FBS). Equal number of cells was added to each well of a 96-well TC plate and the cells were pretreated for 2 h with various concentrations (ranging from 0.1 to 200 ng/mL; solutions prepared in culture medium from a stock solution containing 50 mg/l mL DMSO of each test compound) of extracts, fractions and compounds of Annona squamosa. The inflammatory response was induced by 100 ng/mL of LPS for 4 h at 37° C. in presence of 5% CO2. The vehicle control culture wells received 0.1% DMSO in culture medium. The cell culture supernatants were collected and assessed for secretory pro-inflammatory cytokine, TNFα. The TNFα concentration was quantitatively measured by highly specific and sensitive Enzyme Immuno Assay (EIA) kit supplied by R&D Systems, USA. The enzyme immuno assay was performed based on the protocol provided by the vendor. The inhibitory concentration for 50% inhibition (IC50) of TNFα was determined from a plot drawn for ingredient concentrations against corresponding TNFα levels. […] Table 1 is a summary of 50% inhibitory (IC50) concentrations of various extracts, fractions and compounds derived from Annona squamosa plant parts in cell based in vitro model.

[2] = tested on: IL-4; test: Serum cytokine multiplex assay in FCA induced rats: IL-4; assay type: in vivo, Sprague Dawley rats; details: 10 mg/kg; vehicle control = 1.000
From the text: (§1) Further, the levels of a wide range of cytokine biomarkers were estimated in the serum of the treatment groups supplemented with LI12100 and the control group using multiplex assay (RCYTOMAG 80K) following the instructions provided by the vendor (Millipore Corporation, Billerica, Mass., USA). […] The cytokines modulated by LI12100 include TNFα, IFNγ, IL-1β, IL-2, IL-4, IL-6, IL-13, MCP-1, Rantes and Eotaxin.
as §1, with “groups” for “groups supplemented with LI12100”, “ameliorated” for “modulated”, “Eotaxin as summarized in Table 3.” for “Eotaxin.”

[3] = tested on: IL-1β; test: Serum cytokine multiplex assay in FCA induced rats: IL-1β; assay type: in vivo, Sprague Dawley rats; details: 10 mg/kg; vehicle control = 1.000
From the text: as §1
as §1, with “groups” for “groups supplemented with LI12100”, “ameliorated” for “modulated”, “Eotaxin as summarized in Table 3.” for “Eotaxin.”

[4] = tested on: TNFα; test: Serum cytokine multiplex assay in FCA induced rats: TNFα; assay type: in vivo, Sprague Dawley rats; details: 10 mg/kg; vehicle control = 1.000
From the text: as §1
as §1, with “groups” for “groups supplemented with LI12100”, “ameliorated” for “modulated”, “Eotaxin as summarized in Table 3.” for “Eotaxin.”

[5] = tested on: IL-6; test: Serum cytokine multiplex assay in FCA induced rats: IL-6; assay type: in vivo, Sprague Dawley rats; details: 10 mg/kg; vehicle control = 1.000
From the text: as §1
as §1, with “groups” for “groups supplemented with LI12100”, “ameliorated” for “modulated”, “Eotaxin as summarized in Table 3.” for “Eotaxin.”

[6] = tested on: Freund's Complete Adjuvant induced paw edema; test: Freund's Complete Adjuvant induced arthritis model, paw edema; assay type: in vivo, Sprague Dawley rats; details: 10 mg/kg positive control
Protocol: The potent in vitro anti-inflammatory efficacy shown by the Annona squamosa leaf ethyl acetate extract (LI12101; standardized to 0.2% squamocin C) was then tested in an in vivo system using Freund's Complete Adjuvant induced arthritis model of Sprague Dawley rats. The anti-inflammatory efficacy of LI12101 (100 mg/kg body weight per day) was evaluated in Freund's Complete Adjuvant induced arthritis model of Sprague Dawley rats and compared its efficacy with that shown by the positive control group supplemented with Prednisolone at 10 mg/kg body weight. The treatment group rats were supplemented daily with LI12101 or prednisolone. […] Blood samples were collected from each animal at regular intervals and paw volumes were measured by Plethysmography equipment on the day of FCA injection and after 13 days of FCA inoculation. […]
To further confirm the in vivo anti-inflammatory activity and study the dose dependent effect, the methanol extract of Annona squamosa leaves (LI12100; standardized to 0.24% squamocin C) was evaluated in Freund's Complete Adjuvant induced arthritis model of Sprague Dawley rats. The anti-inflammatory efficacy of LI12100 (at 50 mg/kg and 100 mg/kg body weight per day) was evaluated in FCA induced arthritis model of Sprague Dawley rats and compared its efficacy with that shown by the positive control group supplemented with Prednisolone at 10 mg/kg body weight. […]

[7] = tested on: MCP-1; test: Serum cytokine multiplex assay in FCA induced rats: MCP-1; assay type: in vivo, Sprague Dawley rats; details: 10 mg/kg; vehicle control = 1.000
From the text: as §1
as §1, with “groups” for “groups supplemented with LI12100”, “ameliorated” for “modulated”, “Eotaxin as summarized in Table 3.” for “Eotaxin.”

[8] = tested on: IL-2; test: Serum cytokine multiplex assay in FCA induced rats: IL-2; assay type: in vivo, Sprague Dawley rats; details: 10 mg/kg; vehicle control = 1.000
From the text: as §1
as §1, with “groups” for “groups supplemented with LI12100”, “ameliorated” for “modulated”, “Eotaxin as summarized in Table 3.” for “Eotaxin.”

[9] = tested on: IL-13; test: Serum cytokine multiplex assay in FCA induced rats: IL-13; assay type: in vivo, Sprague Dawley rats; details: 10 mg/kg; vehicle control = 1.000
From the text: as §1
as §1, with “groups” for “groups supplemented with LI12100”, “ameliorated” for “modulated”, “Eotaxin as summarized in Table 3.” for “Eotaxin.”

[10] = tested on: Eotaxin; test: Serum cytokine multiplex assay in FCA induced rats: Eotaxin; assay type: in vivo, Sprague Dawley rats; details: 10 mg/kg; vehicle control = 1.000
From the text: as §1
as §1, with “groups” for “groups supplemented with LI12100”, “ameliorated” for “modulated”, “Eotaxin as summarized in Table 3.” for “Eotaxin.”

[11] = tested on: Rantes; test: Serum cytokine multiplex assay in FCA induced rats: Rantes; assay type: in vivo, Sprague Dawley rats; details: 10 mg/kg; vehicle control = 1.000
From the text: as §1
as §1, with “groups” for “groups supplemented with LI12100”, “ameliorated” for “modulated”, “Eotaxin as summarized in Table 3.” for “Eotaxin.”

[12] = tested on: TNFα; test: Serum TNFα in FCA challenged rats (enzyme-immuno assay kit); assay type: in vivo, Sprague Dawley rats; details: 10 mg/kg
Protocol: After 14 days of FCA challenge, serum TNFα was quantitatively measured by enzyme-immuno assay kit (R&D Systems, USA). The bars a, b and c represent the levels of the cytokines in groups supplemented with control, LI12101 (100 mg/kg) and prednisolone (10 mg/kg) respectively. Each bar represents mean±SD, N=6. * p<0.05 and ** p<0.005 (vs. control).
After 14 days of FCA challenge, serum TNFα[…] was quantitatively measured by enzyme-immuno assay kit (R&D Systems, USA). The bars represent the levels of the cytokines in groups supplemented with control, LI12100 at 50 mg/kg body weight, LI12100 at 100 mg/kg body weight and prednisolone (10 mg/kg) respectively. Each bar represents mean±SD, N=6.
The levels of cytokine tumor necrosis factor alpha (TNFα) were evaluated in blood serum collected 13 days after FCA challenge. The serum cytokine levels were measured using enzyme-immune assay kit supplied by R & D systems, USA.
The levels of cytokine tumor necrosis factor-alpha (TNFα) were evaluated in blood serum collected 14 days after FCA challenge. The serum cytokine levels were measured using enzyme-immune assay kit supplied by R & D systems, USA.

[13] = tested on: IFNγ; test: Serum cytokine multiplex assay in FCA induced rats: IFNγ; assay type: in vivo, Sprague Dawley rats; details: 10 mg/kg; vehicle control = 1.000
From the text: as §1
as §1, with “groups” for “groups supplemented with LI12100”, “ameliorated” for “modulated”, “Eotaxin as summarized in Table 3.” for “Eotaxin.”

[14] = LPS induced THP-1 human monocytes

In the case of `CCCCCCCCCC[C@@H](O)[C@H]1CC[C@H]([C@H]2CC[C@H]([C@H](O)CCCC[C@H](O)CCCCC[C@@H](O)CC3=C[C@H](C)OC3=O)O2)O1` [10-Hydroxyasimicin, 10-hydroxyasimicin], the “TNFα inhibition IC50” value [1, 14] was 3.21 ng/mL.
In the case of `CCCCCCCCCC[C@H](O)[C@@H]1CC[C@@H]([C@H](O)CC[C@@H](O)[C@@H]2CC[C@@H](CCCCCCCCCC3=C[C@@H](C)OC3=O)O2)O1` [Squamostatin D, squamostatin D], the “TNFα inhibition IC50” value [1, 14] was 4.08 ng/mL.
In the case of `CCCCCCCCCC[C@H](O)[C@H]1CC[C@H]([C@H]2CC[C@H]([C@H](O)CCCCCCCCCC[C@@H](O)CC3=C[C@H](C)OC3=O)O2)O1` [Squamocin G, squamocin G], the “TNFα inhibition IC50” value [1, 14] was 0.124 ng/mL.
In the case of `C[C@]12C=CC(=O)C=C1CC[C@@H]1[C@@H]2[C@@H](O)C[C@@]2(C)[C@H]1CC[C@]2(O)C(=O)CO` [Prednisolone], the “Relative expression of IL-4 in serum” value [2] was 0.831, the “Relative expression of IL-1β in serum” value [3] was 0.848 and the “Relative expression of TNFα in serum” value [4] was 0.754. The “Relative expression of IL-6 in serum” value [5] was 1.377, the “reduction in paw volume vs control” value ([6]; Example 16 study) was 71% and the “reduction in paw volume vs control” value ([6]; Example 17 study) was 69.2%. The “Relative expression of MCP-1 in serum” value [7] was 0.802, the “Relative expression of IL-2 in serum” value [8] was 0.515 and the “Relative expression of IL-13 in serum” value [9] was 3.120. For the same compound, the “Relative expression of Eotaxin in serum” value [10] was 0.992, the “Relative expression of Rantes in serum” value [11] was 0.874 and the “serum TNFα level vs control” value ([12]; Example 16 study) was “significant reduction”. For the same compound, the “serum TNFα level vs control” value ([12]; Example 17 study) was “significant reduction” and the “Relative expression of IFNγ in serum” value [13] was 1.496.
`CCCCCCCCCCC(O)C1CCC(C2CCC(C(O)CCCCCCCCCCCCC3=CC(C)OC3=O)O2)O1` (centres unmarked) [Squamocin L, squamocin L] was tested, and the “TNFα inhibition IC50” value [1, 14] was 0.116 ng/mL.
For `CCCCCCCCCCCCCC[C@H]1O[C@H]1CC[C@@H]1O[C@@H]1CCCCCCCCCCC1=C[C@H](C)OC1=O` [Dieposabadelin, dieposabadelin], the “TNFα inhibition IC50” value [1, 14] was >5 ng/mL.
For `CCCCCC(O)CCCCC(O)C1CCC(C2CCC(C(O)CCCCCCCCCCCCC3=CC(C)OC3=O)O2)O1` (centres unmarked) [Squamocin C, squamocin C], the “TNFα inhibition IC50” value [1, 14] was 0.0249 ng/mL and the “TNFα inhibition IC50” value ([1]; THP-1 human monocytes) was 0.0249 ng/mL.
In the case of isosquamocin, the “TNFα inhibition IC50” value [1, 14] was 0.080 ng/mL and the TNFα inhibition ([1]; at 100 pg/mL) was 63%.

Source: US9427425B2, “Extracts, fractions and compositions comprising acetogenins and their applications” (LAILA NUTRACEUTICALS, priority 2009, dated 2016)
